Key:
[1] = Plasma concentration of COL-3 in humans; assay type: in vivo; conditions: dose of about 10 to about 20 mg/day
Protocol: A preferred COL is 6-demethyl-6-deoxy-4-de(dimethylamino)tetracycline (COL-3). COL-3 is administered in doses of up to about 200 mg/day, preferably about 150 mg/day, more preferably about 100 mg/day, or in amounts that result in plasma concentrations of up to about 50 μg/ml, about 40 μg/ml or about 30 μg/ml. For example, a dose of about 10 to about 20 mg/day of COL-3 produces plasma concentrations in humans of about 1.0 μg/ml.

aphthous ulcers = conditions: continuous systemic treatment, antimicrobial amounts; cited from earlier work
[2] = system: minor aphthous ulceration; assay: Clinical study of SDD versus placebo for relief of symptoms of aphthous ulceration; assay type: in vivo, human; conditions: for number of ulcers / pain associated with ulcers: 20 mg twice a day, vis-à-vis placebo group
Protocol: The objective of this study was to evaluate the clinical effects of a 20 mg dose of doxycycline administered twice daily (i.e., a sub-antibacterial dose of doxycycline, “SDD”) vis-à-vis a placebo administered twice daily for the relief of symptoms of aphthous ulceration.
The study was a single center, placebo-controlled, double-bind, parallel group study. The study participants were fifty patients of an oral medicine clinic. The participants were screened to identify any known predisposing factors prior to the study.
The participants were administered SDD or placebo for three months. The participants were permitted to use any additional ulcer management therapies as needed. The participants kept daily diaries to record pain caused by ulcers using the Visual Analogue Scale (VAS), and to record the number of new ulcers each day. The VAS quantified pain over a continuum represented by a horizontal line 100 mm in length.
At the baseline, the oral soft tissues and ulcer count were evaluated in each of the participants. The ulcer history of each participant was taken. At the third month, oral soft tissues and ulcer count were reevaluated.
Of the 50 participants, 25 were administered SDD; and 25 were administered placebo. Of the 50 participants, 32 were females, 18 were males; and 49 were Caucasian, and one was Asian. Thirty-three participants completed the study. Of these participants, 16 were in the SDD group and 17 were in the placebo group.

Compound: NC(=O)C1=C(O)C[C@@H]2C[C@@H]3Cc4cccc(O)c4C(=O)C3=C(O)[C@]2(O)C1=O [COL-3, 6-demethyl-6-deoxy-4-de(dimethylamino)tetracycline]
- plasma concentrations in humans [1]: about 1.0 μg/ml

Compound: CN(C)[C@@H]1C(O)=C(C(N)=O)C(=O)[C@@]2(O)C(O)=C3C(=O)c4c(O)cccc4[C@@](C)(O)[C@H]3C[C@@H]12 [tetracycline, Tetracycline]
- remission phases of aphthous ulcers (aphthous ulcers): long remission phases

Compound: doxycycline hyclate [SDD]
- treatment of RAS ([2]; 20 mg doxycycline twice daily for three months): effectively treated RAS
- Mean number of ulcers present at month 3 ([2]; 20 mg doxycycline twice daily for three months, placebo group 1.24, P >0.05): 0.69
- Mean number of days using additional treatments ([2]; 20 mg doxycycline twice daily for three months, placebo group 13.4, P >0.05): 11.5
- Mean total number of new ulcers in 3 months ([2]; 20 mg doxycycline twice daily for three months, placebo group 35, P >0.05(0.07)): 17
- number of ulcers [2]: fewer ulcers
- pain associated with ulcers [2]: less pain
- number of ulcers ([2]; listed as doxycycline hyclate): significant reduction
- pain associated with ulcers ([2]; listed as doxycycline hyclate): significant reduction
- Mean cumulative VAS (mm) ([2]; pain by Visual Analogue Scale, daily diaries over three months, placebo group 1435, P >0.05): 901 mm
